Measurements taken from ChEMBL document CHEMBL3797052 (Eur J Med Chem, 2016).

System: A498
Assay: Antiproliferative activity against human A498 cells assessed as growth inhibition after 48 hrs by sulforhodamine B assay
Type: functional
Conditions: A498, 48 h

SMILES	GI50 [µM]	LC50 (concentration killing 50% of cells) [µM]	TGI [µM]
CNC(=O)c1cc(Oc2ccc3nc(NC(=O)Nc4ccc(Cl)c(C(F)(F)F)c4)sc3c2)ccn1	2.49	> 100	12.2

System: K562
Assay: Antiproliferative activity against human K562 cells assessed as cell growth at 10^-7 M after 48 hrs by sulforhodamine B assay
Type: functional
Conditions: K562, 48 h, read-out: Activity

SMILES	growth at 0.1 µM [%]
CNC(=O)c1cc(Oc2ccc3nc(NC(=O)Nc4ccc(Cl)c(C(F)(F)F)c4)sc3c2)ccn1	104

System: EKVX
Assay: Antiproliferative activity against human EKVX cells assessed as cell growth at 10^-7 M after 48 hrs by sulforhodamine B assay
Type: functional
Conditions: read-out: Activity

SMILES	growth at 0.1 µM [%]
CNC(=O)c1cc(Oc2ccc3nc(NC(=O)Nc4ccc(Cl)c(C(F)(F)F)c4)sc3c2)ccn1	94

System: U-251
Assay: Antiproliferative activity against human U251 cells assessed as cell growth at 10^-7 M after 48 hrs by sulforhodamine B assay
Type: functional
Conditions: U-251, 48 h, read-out: Activity

SMILES	growth at 0.1 µM [%]
CNC(=O)c1cc(Oc2ccc3nc(NC(=O)Nc4ccc(Cl)c(C(F)(F)F)c4)sc3c2)ccn1	101

System: CCRF-CEM
Assay: Antiproliferative activity against human CCRF-CEM cells assessed as cell growth at 10^-5 M after 48 hrs by sulforhodamine B assay
Type: functional
Conditions: read-out: Activity

SMILES	growth at 10 µM [%]
CNC(=O)c1cc(Oc2ccc3nc(NC(=O)Nc4ccc(Cl)c(C(F)(F)F)c4)sc3c2)ccn1	22

System: not listed separately
Assay: Antiproliferative activity against human MOLT4 cells assessed as cell growth at 10^-5 M after 48 hrs by sulforhodamine B assay
Type: functional
Conditions: MOLT-4, 48 h, read-out: Activity

SMILES	growth at 10 µM [%]
CNC(=O)c1cc(Oc2ccc3nc(NC(=O)Nc4ccc(Cl)c(C(F)(F)F)c4)sc3c2)ccn1	38

System: SR
Assay: Antiproliferative activity against human SR cells assessed as cell growth at 10^-5 M after 48 hrs by sulforhodamine B assay
Type: functional
Conditions: read-out: Activity

SMILES	growth at 10 µM [%]
CNC(=O)c1cc(Oc2ccc3nc(NC(=O)Nc4ccc(Cl)c(C(F)(F)F)c4)sc3c2)ccn1	-1

System: A549
Assay: Antiproliferative activity against human A549/ATCC cells assessed as cell growth at 10^-5 M after 48 hrs by sulforhodamine B assay
Type: functional
Conditions: A549, 48 h, read-out: Activity

SMILES	growth at 10 µM [%]
CNC(=O)c1cc(Oc2ccc3nc(NC(=O)Nc4ccc(Cl)c(C(F)(F)F)c4)sc3c2)ccn1	-50

System: EKVX
Assay: Antiproliferative activity against human EKVX cells assessed as cell growth at 10^-5 M after 48 hrs by sulforhodamine B assay
Type: functional
Conditions: read-out: Activity

SMILES	growth at 10 µM [%]
CNC(=O)c1cc(Oc2ccc3nc(NC(=O)Nc4ccc(Cl)c(C(F)(F)F)c4)sc3c2)ccn1	-50

System: NCI-H226
Assay: Antiproliferative activity against human NCI-H226 cells assessed as cell growth at 10^-5 M after 48 hrs by sulforhodamine B assay
Type: functional
Conditions: NCI-H226, 48 h, read-out: Activity

SMILES	growth at 10 µM [%]
CNC(=O)c1cc(Oc2ccc3nc(NC(=O)Nc4ccc(Cl)c(C(F)(F)F)c4)sc3c2)ccn1	-14

System: NCI-H23
Assay: Antiproliferative activity against human NCI-H23 cells assessed as cell growth at 10^-5 M after 48 hrs by sulforhodamine B assay
Type: functional
Conditions: NCI-H23, 48 h, read-out: Activity

SMILES	growth at 10 µM [%]
CNC(=O)c1cc(Oc2ccc3nc(NC(=O)Nc4ccc(Cl)c(C(F)(F)F)c4)sc3c2)ccn1	-8

System: NCI-H460
Assay: Antiproliferative activity against human NCI-H460 cells assessed as cell growth at 10^-5 M after 48 hrs by sulforhodamine B assay
Type: functional
Conditions: NCI-H460, 48 h, read-out: Activity

SMILES	growth at 10 µM [%]
CNC(=O)c1cc(Oc2ccc3nc(NC(=O)Nc4ccc(Cl)c(C(F)(F)F)c4)sc3c2)ccn1	-57

System: not listed separately
Assay: Antiproliferative activity against human SF295 cells assessed as cell growth at 10^-5 M after 48 hrs by sulforhodamine B assay
Type: functional
Conditions: SF-295, 48 h, read-out: Activity

SMILES	growth at 10 µM [%]
CNC(=O)c1cc(Oc2ccc3nc(NC(=O)Nc4ccc(Cl)c(C(F)(F)F)c4)sc3c2)ccn1	-68

System: not listed separately
Assay: Antiproliferative activity against human SNB75 cells assessed as cell growth at 10^-5 M after 48 hrs by sulforhodamine B assay
Type: functional
Conditions: SNB-75, 48 h, read-out: Activity

SMILES	growth at 10 µM [%]
CNC(=O)c1cc(Oc2ccc3nc(NC(=O)Nc4ccc(Cl)c(C(F)(F)F)c4)sc3c2)ccn1	-75

System: U-251
Assay: Antiproliferative activity against human U251 cells assessed as cell growth at 10^-5 M after 48 hrs by sulforhodamine B assay
Type: functional
Conditions: U-251, 48 h, read-out: Activity

SMILES	growth at 10 µM [%]
CNC(=O)c1cc(Oc2ccc3nc(NC(=O)Nc4ccc(Cl)c(C(F)(F)F)c4)sc3c2)ccn1	-66

System: not listed separately
Assay: Antiproliferative activity against human SKOV3 cells assessed as cell growth at 10^-7 M after 48 hrs by sulforhodamine B assay
Type: functional
Conditions: SK-OV-3, 48 h, read-out: Activity

SMILES	growth at 0.1 µM [%]
CNC(=O)c1cc(Oc2ccc3nc(NC(=O)Nc4ccc(Cl)c(C(F)(F)F)c4)sc3c2)ccn1	103

System: M14
Assay: Antiproliferative activity against human M14 cells assessed as cell growth at 10^-5 M after 48 hrs by sulforhodamine B assay
Type: functional
Conditions: M14, 48 h, read-out: Activity

SMILES	growth at 10 µM [%]
CNC(=O)c1cc(Oc2ccc3nc(NC(=O)Nc4ccc(Cl)c(C(F)(F)F)c4)sc3c2)ccn1	-29

System: SK-MEL-5
Assay: Antiproliferative activity against human SK-MEL-5 cells assessed as cell growth at 10^-5 M after 48 hrs by sulforhodamine B assay
Type: functional
Conditions: SK-MEL-5, 48 h, read-out: Activity

SMILES	growth at 10 µM [%]
CNC(=O)c1cc(Oc2ccc3nc(NC(=O)Nc4ccc(Cl)c(C(F)(F)F)c4)sc3c2)ccn1	-62

System: not listed separately
Assay: Antiproliferative activity against human UACC257 cells assessed as cell growth at 10^-5 M after 48 hrs by sulforhodamine B assay
Type: functional
Conditions: UACC-257, 48 h, read-out: Activity

SMILES	growth at 10 µM [%]
CNC(=O)c1cc(Oc2ccc3nc(NC(=O)Nc4ccc(Cl)c(C(F)(F)F)c4)sc3c2)ccn1	14

System: not listed separately
Assay: Antiproliferative activity against human IGROV1 cells assessed as cell growth at 10^-5 M after 48 hrs by sulforhodamine B assay
Type: functional
Conditions: IGROV-1, 48 h, read-out: Activity

SMILES	growth at 10 µM [%]
CNC(=O)c1cc(Oc2ccc3nc(NC(=O)Nc4ccc(Cl)c(C(F)(F)F)c4)sc3c2)ccn1	-36

System: not listed separately
Assay: Antiproliferative activity against human OVCAR3 cells assessed as cell growth at 10^-5 M after 48 hrs by sulforhodamine B assay
Type: functional
Conditions: OVCAR-3, 48 h, read-out: Activity

SMILES	growth at 10 µM [%]
CNC(=O)c1cc(Oc2ccc3nc(NC(=O)Nc4ccc(Cl)c(C(F)(F)F)c4)sc3c2)ccn1	-70

System: not listed separately
Assay: Antiproliferative activity against human OVCAR5 cells assessed as cell growth at 10^-5 M after 48 hrs by sulforhodamine B assay
Type: functional
Conditions: OVCAR-5, 48 h, read-out: Activity

SMILES	growth at 10 µM [%]
CNC(=O)c1cc(Oc2ccc3nc(NC(=O)Nc4ccc(Cl)c(C(F)(F)F)c4)sc3c2)ccn1	-13

System: not listed separately
Assay: Antiproliferative activity against human NCI-ADR-RES cells assessed as cell growth at 10^-5 M after 48 hrs by sulforhodamine B assay
Type: functional
Conditions: read-out: Activity

SMILES	growth at 10 µM [%]
CNC(=O)c1cc(Oc2ccc3nc(NC(=O)Nc4ccc(Cl)c(C(F)(F)F)c4)sc3c2)ccn1	-21

System: not listed separately
Assay: Antiproliferative activity against human SKOV3 cells assessed as cell growth at 10^-5 M after 48 hrs by sulforhodamine B assay
Type: functional
Conditions: SK-OV-3, 48 h, read-out: Activity

SMILES	growth at 10 µM [%]
CNC(=O)c1cc(Oc2ccc3nc(NC(=O)Nc4ccc(Cl)c(C(F)(F)F)c4)sc3c2)ccn1	-54

System: 786-0
Assay: Antiproliferative activity against human 786-0 cells assessed as cell growth at 10^-5 M after 48 hrs by sulforhodamine B assay
Type: functional
Conditions: 786-0, 48 h, read-out: Activity

SMILES	growth at 10 µM [%]
CNC(=O)c1cc(Oc2ccc3nc(NC(=O)Nc4ccc(Cl)c(C(F)(F)F)c4)sc3c2)ccn1	-64

System: ACHN
Assay: Antiproliferative activity against human ACHN cells assessed as cell growth at 10^-5 M after 48 hrs by sulforhodamine B assay
Type: functional
Conditions: read-out: Activity

SMILES	growth at 10 µM [%]
CNC(=O)c1cc(Oc2ccc3nc(NC(=O)Nc4ccc(Cl)c(C(F)(F)F)c4)sc3c2)ccn1	-67

System: not listed separately
Assay: Antiproliferative activity against human RXF393 cells assessed as cell growth at 10^-5 M after 48 hrs by sulforhodamine B assay
Type: functional
Conditions: RXF 393, 48 h, read-out: Activity

SMILES	growth at 10 µM [%]
CNC(=O)c1cc(Oc2ccc3nc(NC(=O)Nc4ccc(Cl)c(C(F)(F)F)c4)sc3c2)ccn1	-45

System: SN12C
Assay: Antiproliferative activity against human SN12C cells assessed as cell growth at 10^-5 M after 48 hrs by sulforhodamine B assay
Type: functional
Conditions: read-out: Activity

SMILES	growth at 10 µM [%]
CNC(=O)c1cc(Oc2ccc3nc(NC(=O)Nc4ccc(Cl)c(C(F)(F)F)c4)sc3c2)ccn1	1

System: not listed separately
Assay: Antiproliferative activity against human TK10 cells assessed as cell growth at 10^-5 M after 48 hrs by sulforhodamine B assay
Type: functional
Conditions: TK-10, 48 h, read-out: Activity

SMILES	growth at 10 µM [%]
CNC(=O)c1cc(Oc2ccc3nc(NC(=O)Nc4ccc(Cl)c(C(F)(F)F)c4)sc3c2)ccn1	-55

System: not listed separately
Assay: Antiproliferative activity against human PC3 cells assessed as cell growth at 10^-5 M after 48 hrs by sulforhodamine B assay
Type: functional
Conditions: PC-3, 48 h, read-out: Activity

SMILES	growth at 10 µM [%]
CNC(=O)c1cc(Oc2ccc3nc(NC(=O)Nc4ccc(Cl)c(C(F)(F)F)c4)sc3c2)ccn1	-67

System: MCF7
Assay: Antiproliferative activity against human MCF7 cells assessed as cell growth at 10^-5 M after 48 hrs by sulforhodamine B assay
Type: functional
Conditions: MCF7, 48 h, read-out: Activity

SMILES	growth at 10 µM [%]
CNC(=O)c1cc(Oc2ccc3nc(NC(=O)Nc4ccc(Cl)c(C(F)(F)F)c4)sc3c2)ccn1	-3

System: MDA-MB-231
Assay: Antiproliferative activity against human MDA-MB-231 cells assessed as cell growth at 10^-5 M after 48 hrs by sulforhodamine B assay
Type: functional
Conditions: MDA-MB-231, 48 h, read-out: Activity

SMILES	growth at 10 µM [%]
CNC(=O)c1cc(Oc2ccc3nc(NC(=O)Nc4ccc(Cl)c(C(F)(F)F)c4)sc3c2)ccn1	-38

System: CCRF-CEM
Assay: Antiproliferative activity against human CCRF-CEM cells assessed as growth inhibition after 48 hrs by sulforhodamine B assay
Type: functional
Conditions: not given

SMILES	TGI [µM]
CNC(=O)c1cc(Oc2ccc3nc(NC(=O)Nc4ccc(Cl)c(C(F)(F)F)c4)sc3c2)ccn1	> 100

Same assay, conditions: read-out: LC50 (the source's name)

SMILES	CC50 [µM]
CNC(=O)c1cc(Oc2ccc3nc(NC(=O)Nc4ccc(Cl)c(C(F)(F)F)c4)sc3c2)ccn1	> 100

Target: RAF proto-oncogene serine/threonine-protein kinase (Homo sapiens, UniProt P04049)
Sequence (P04049 whole entry): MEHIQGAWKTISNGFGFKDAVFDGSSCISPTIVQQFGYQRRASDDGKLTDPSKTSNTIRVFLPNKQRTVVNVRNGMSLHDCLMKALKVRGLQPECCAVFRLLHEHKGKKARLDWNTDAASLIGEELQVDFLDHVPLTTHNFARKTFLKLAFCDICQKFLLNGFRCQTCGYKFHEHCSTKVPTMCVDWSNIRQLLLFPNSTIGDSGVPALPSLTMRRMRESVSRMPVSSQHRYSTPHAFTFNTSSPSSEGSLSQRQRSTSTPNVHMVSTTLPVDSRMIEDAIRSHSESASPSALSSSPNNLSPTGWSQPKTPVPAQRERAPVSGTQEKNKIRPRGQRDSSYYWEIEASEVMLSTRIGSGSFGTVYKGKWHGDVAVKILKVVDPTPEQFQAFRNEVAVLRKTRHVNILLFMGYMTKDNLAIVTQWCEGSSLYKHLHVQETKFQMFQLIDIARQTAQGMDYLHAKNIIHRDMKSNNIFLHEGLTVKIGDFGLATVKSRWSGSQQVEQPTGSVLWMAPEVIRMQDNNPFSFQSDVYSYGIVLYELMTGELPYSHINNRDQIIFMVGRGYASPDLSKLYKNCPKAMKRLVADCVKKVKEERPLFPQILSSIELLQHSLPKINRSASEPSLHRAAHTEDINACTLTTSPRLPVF
Assay: Inhibition of human C-RAF measured after 40 mins by scintillation counting
Conditions: not given

SMILES	IC50 [µM]
CNC(=O)c1cc(Oc2ccc3nc(NC(=O)Nc4ccc(Cl)c(C(F)(F)F)c4)sc3c2)ccn1	0.111

System: CCRF-CEM
Assay: Antiproliferative activity against human CCRF-CEM cells assessed as cell growth at 10^-8 M after 48 hrs by sulforhodamine B assay
Type: functional
Conditions: read-out: Activity

SMILES	growth at 0.01 µM [%]
CNC(=O)c1cc(Oc2ccc3nc(NC(=O)Nc4ccc(Cl)c(C(F)(F)F)c4)sc3c2)ccn1	105

System: not listed separately
Assay: Antiproliferative activity against human HCC2998 cells assessed as cell growth at 10^-4 M after 48 hrs by sulforhodamine B assay
Type: functional
Conditions: HCC 2998, 48 h, read-out: Activity

SMILES	growth at 100 µM [%]
CNC(=O)c1cc(Oc2ccc3nc(NC(=O)Nc4ccc(Cl)c(C(F)(F)F)c4)sc3c2)ccn1	66

System: A498
Assay: Antiproliferative activity against human A498 cells assessed as cell growth at 10^-8 M after 48 hrs by sulforhodamine B assay
Type: functional
Conditions: A498, 48 h, read-out: Activity

SMILES	growth at 0.01 µM [%]
CNC(=O)c1cc(Oc2ccc3nc(NC(=O)Nc4ccc(Cl)c(C(F)(F)F)c4)sc3c2)ccn1	95
